≈ marks a conversion by molar mass, not a printed value.
How the values were obtained:
MRSA USA300 = experiment: MIC assay in the presence of sheep serum; format: cell-based, Staphylococcus aureus; conditions: MRSA USA300, TSB + 0.002% p80 + 50% sheep serum
Procedure: (§1) The antibacterial activity of the compounds was tested against a panel of bacteria, including Gram-positive bacteria (S. aureus ATCC29213, S. aureus USA300, S. aureus LIM-2, NR-45881, S. aureus HIP13419, NR-46413, E. faecium E155, E. faecium E7314, E. faecium E980, E. faecalis E1246, E. faecalis E7406 and S. pneumonia 153). The antibacterial activity of the compounds was further tested against S. aureus NY-155, NR-46236, S. aureus HIP12864, NR-46074, S. aureus 880 (BR-VRSA), NR-49120, E. faecalis E1246, E. faecalis E7604, as well as some Gram-negative bacteria (Escherichia coli and Klebsiella pneumoniae). Minimum inhibitory concentrations (MICs) in μg/mL were performed according to the CLSI guidelines. From glycerol stocks, bacterial strains were cultured on blood agar plates and incubated at 37° C. for 18 h. A single colony was transferred to tryptic soy broth (TSB) with 0.002% polysorbate 80 (p80). For the Enterococcus, VISA and VRSA strains, the cultures were grown at 37° C. until the optical density of the suspension reached a level equivalent to the 0.5 McFarland standard. The bacterial suspensions were diluted in TSB with 0.002% p80 to reach a bacterial cell density of 10^6 CFU/mL. In case of the other (vancomycin-sensitive) S. aureus strains, the direct colony suspension method was used. For these strains, after transfer of the colonies to TSB with 0.002% p80, they were immediately diluted to 10^6 CFU/mL, instead of incubated prior to this dilution. In the case of S. pneumonia, direct colony suspension was used by immediately suspending multiple colonies from fresh blood agar plates in TSB+0.002% p80 to an OD600 of 0.5 and subsequent dilution to 10^6 CFU mL^−1 in TSB+0.002% p80+5% lysed horse blood. Antibiotic dilutions for this strains were also made in TSB+0.002% p80+5% lysed horse blood. Both agar and microplates containing S. pneumonia were incubated at 37° C. with 5% CO2 for 24 h with constant shaking (600 rpm). […] The cultures were grown to exponential phase (OD600=0.5) at 37° C. […] In polypropylene 96-well microtiter plates, test compounds were added in biological triplicates and serial diluted 2-fold by transfer and mixing from one well to the next to achieve a final volume of 50 μL per well. An equal volume of bacterial suspension (10^6 CFU mL^−1) was added to the wells. The plates were sealed with breathable membranes and incubated at 37° C. for 24 h with constant shaking (600 rpm). In polypropylene microtiter plates, 100 μL of the test compounds was added to the first row in biological triplicates, and 50 μL of media was added to the other wells. The compounds were subjected to serial dilution by transfer and mixing of 50 μL from one well to the next. Subsequently, 50 μL of bacterial suspension (10^6 CFU/mL) was added to the wells. The plates were sealed with breathable membranes and incubated at 37° C. for 24 h with constant shaking (600 rpm). Positive growth control consisted of wells with bacterial suspension and without antibiotic. Negative growth control consisted of solely media without bacterial suspension or antibiotic. The MICs were determined from the median of a minimum of triplicates.
The activity of the compounds was further assessed against MRSA USA300 strain in the presence of sheep) serum in another MIC assay. The cultures that grew in the presence of serum used TSB+0.002% P80+50% sheep serum as growth media, as opposed to normal MICs done in only TSB+0.002% P80.

[1] = test system: S. aureus NY-155, NR-46236; experiment: MIC assay; format: cell-based, Staphylococcus aureus; conditions: S. aureus NY-155, NR-46236 MRSA
Procedure: as §1

[2] = test system: S. aureus LIM-2, NR-25881; experiment: MIC assay; format: cell-based, Staphylococcus aureus; conditions: S. aureus LIM-2, NR-25881 VISA
Procedure: as §1

[3] = test system: S. aureus HIP12864, NR-46074; experiment: MIC assay; format: cell-based, Staphylococcus aureus; conditions: S. aureus HIP12864, NR-46074 VISA
Procedure: as §1

S. aureus ATCC29213 = experiment: MIC assay; format: cell-based, Staphylococcus aureus; conditions: S. aureus ATCC29213 MSSA
Procedure: as §1

[4] = test system: S. aureus 880 (BR-VRSA), NR-49120; experiment: MIC assay; format: cell-based, Staphylococcus aureus; conditions: S. aureus 880, NR-49120 VRSA
Procedure: as §1

S. pneumoniae 153 = experiment: MIC assay; format: cell-based; conditions: S. pneumoniae 153; TSB+0.002% p80+5% lysed horse blood
Procedure: as §1

E. faecalis E7406 = experiment: microbe, parasite or virus in culture; format: cell-based, Enterococcus faecalis; conditions: E. faecalis E7406 VRE (VanB)
Procedure: as §1

E. faecalis E7604 = experiment: microbe, parasite or virus in culture; format: cell-based, Enterococcus faecalis; conditions: E. faecalis E7604 VRE (vanB)
Procedure: as §1

E. faecium E155 = experiment: microbe, parasite or virus in culture; format: cell-based, Enterococcus faecium; conditions: E. faecium E155 VRE (VanA)
Procedure: as §1

E. faecium E7314 = experiment: microbe, parasite or virus in culture; format: cell-based, Enterococcus faecium; conditions: E. faecium E7314 VRE (VanB)
Procedure: as §1

[5] = test system: S. aureus HIP13419, NR-46413; experiment: microbe, parasite or virus in culture; format: cell-based, Staphylococcus aureus; conditions: S. aureus HIP13419, NR-46413 VRSA
Procedure: as §1

S. aureus USA300 = experiment: microbe, parasite or virus in culture; format: cell-based, Staphylococcus aureus
Procedure: as §1

E. faecium E980 = experiment: MIC assay; format: cell-based, Enterococcus faecium; conditions: E. faecium E980 VSE
Procedure: as §1

E. faecalis E1246 = experiment: MIC assay; format: cell-based, Enterococcus faecalis
Procedure: as §1

[6] = E. faecalis E1246 VRE (VanA), Table 7
[7] = E. faecalis E1246 VRE (vanA), Table 9

SMILES	MIC (MRSA USA300)	MIC [1]	MIC [2]	MIC [3]	MIC (S. aureus ATCC29213)	MIC [4]	MIC (S. pneumoniae 153)	MIC (E. faecalis E7406)	MIC (E. faecalis E7604)	MIC (E. faecium E155)	MIC (E. faecium E7314)	MIC [5]	MIC (S. aureus USA300; MRSA USA300, TSB + 0.002% p80)	MIC (S. aureus USA300; S. aureus USA300 MRSA)	MIC (E. faecium E980)	MIC (E. faecalis E1246; [6])	MIC (E. faecalis E1246; [7])
CCCCCCCCCCCCCCNC(N)=Nc1ccc(CN[C@@]2(C)C[C@H](O[C@H]3[C@H](Oc4c5cc6cc4Oc4ccc(cc4Cl)[C@@H](O)[C@@H](NC(=O)[C@@H](CC(C)C)NC)C(=O)N[C@@H](CC(N)=O)C(=O)N[C@H]6C(=O)N[C@H]4C(=O)N[C@H](C(=O)N[C@H](C(=O)O)c6cc(O)cc(O)c6-c6cc4ccc6O)[C@H](O)c4ccc(c(Cl)c4)O5)O[C@H](CO)[C@@H](O)[C@@H]3O)O[C@@H](C)[C@H]2O)cc1 [Compound 10]	16 µg/mL	8 µg/mL (≈ 4.46 µM)	4 µg/mL (≈ 2.23 µM)	2 µg/mL (≈ 1.12 µM)	2 µg/mL (≈ 1.12 µM)	1 µg/mL (≈ 0.558 µM)	0.031 µg/mL (≈ 0.0173 µM)	1 µg/mL (≈ 0.558 µM)	1 µg/mL (≈ 0.558 µM)	0.5 µg/mL (≈ 0.279 µM)	0.5 µg/mL (≈ 0.279 µM)	0.5 µg/mL (≈ 0.279 µM)	4 µg/mL	4 µg/mL (≈ 2.23 µM)	0.5 µg/mL (≈ 0.279 µM)	2 µg/mL (≈ 1.12 µM)	2 µg/mL (≈ 1.12 µM)
CN[C@H](CC(C)C)C(=O)N[C@H]1C(=O)N[C@@H](CC(N)=O)C(=O)N[C@H]2C(=O)N[C@H]3C(=O)N[C@H](C(=O)N[C@H](C(=O)O)c4cc(O)cc(O)c4-c4cc3ccc4O)[C@H](O)c3ccc(c(Cl)c3)Oc3cc2cc(c3O[C@@H]2O[C@H](CO)[C@@H](O)[C@H](O)[C@H]2O[C@H]2C[C@](C)(NCc3ccc(N=C(N)NC45CC6CC(CC(C6)C4)C5)cc3)[C@H](O)[C@H](C)O2)Oc2ccc(cc2Cl)[C@H]1O [Compound 17]	0.125 µg/mL	0.031 µg/mL (≈ 0.0179 µM)	0.125 µg/mL (≈ 0.0722 µM)	≤0.016 µg/mL	0.016 µg/mL (≈ 0.00924 µM)	8 µg/mL (≈ 4.62 µM)	0.016 µg/mL (≈ 0.00924 µM)	0.125 µg/mL (≈ 0.0722 µM)	0.125 µg/mL (≈ 0.0722 µM)	8 µg/mL (≈ 4.62 µM)	0.016 µg/mL (≈ 0.00924 µM)	8 µg/mL (≈ 4.62 µM)	0.031 µg/mL	0.031 µg/mL (≈ 0.0179 µM)	≤0.008 µg/mL	16 µg/mL (≈ 9.24 µM)	16 µg/mL (≈ 9.24 µM)
CCCCCCCCCCCCNC(N)=Nc1ccc(CN[C@@]2(C)C[C@H](O[C@H]3[C@H](Oc4c5cc6cc4Oc4ccc(cc4Cl)[C@@H](O)[C@@H](NC(=O)[C@@H](CC(C)C)NC)C(=O)N[C@@H](CC(N)=O)C(=O)N[C@H]6C(=O)N[C@H]4C(=O)N[C@H](C(=O)N[C@H](C(=O)O)c6cc(O)cc(O)c6-c6cc4ccc6O)[C@H](O)c4ccc(c(Cl)c4)O5)O[C@H](CO)[C@@H](O)[C@@H]3O)O[C@@H](C)[C@H]2O)cc1 [Compound 9]	1 µg/mL	0.5 µg/mL (≈ 0.283 µM)	0.5 µg/mL (≈ 0.283 µM)	0.25 µg/mL (≈ 0.142 µM)	0.125 µg/mL (≈ 0.0708 µM)	0.25 µg/mL (≈ 0.142 µM)	≤0.008 µg/mL	0.0625 µg/mL (≈ 0.0354 µM)	0.063 µg/mL (≈ 0.0357 µM)	0.125 µg/mL (≈ 0.0708 µM)	0.03125 µg/mL (≈ 0.0177 µM)	0.125 µg/mL (≈ 0.0708 µM)	0.5 µg/mL	0.5 µg/mL (≈ 0.283 µM)	0.125 µg/mL (≈ 0.0708 µM)	1 µg/mL (≈ 0.567 µM)	1 µg/mL (≈ 0.567 µM)
CCCCCCCCCCNC(N)=Nc1ccc(CN[C@@]2(C)C[C@H](O[C@H]3[C@H](Oc4c5cc6cc4Oc4ccc(cc4Cl)[C@@H](O)[C@@H](NC(=O)[C@@H](CC(C)C)NC)C(=O)N[C@@H](CC(N)=O)C(=O)N[C@H]6C(=O)N[C@H]4C(=O)N[C@H](C(=O)N[C@H](C(=O)O)c6cc(O)cc(O)c6-c6cc4ccc6O)[C@H](O)c4ccc(c(Cl)c4)O5)O[C@H](CO)[C@@H](O)[C@@H]3O)O[C@@H](C)[C@H]2O)cc1 [Compound 8]	0.125 µg/mL	≤0.008 µg/mL	0.016 µg/mL (≈ 0.00921 µM)	0.062 µg/mL (≈ 0.0357 µM)	0.01562 µg/mL (≈ 0.00899 µM)	0.25 µg/mL (≈ 0.144 µM)	≤0.008 µg/mL	≤0.007812 µg/mL	≤0.008 µg/mL	0.25 µg/mL (≈ 0.144 µM)	≤0.007812 µg/mL	0.063 µg/mL (≈ 0.0363 µM)	0.063 µg/mL	0.0625 µg/mL (≈ 0.036 µM)	0.01562 µg/mL (≈ 0.00899 µM)	1 µg/mL (≈ 0.576 µM)	1 µg/mL (≈ 0.576 µM)
CN[C@H](CC(C)C)C(=O)N[C@H]1C(=O)N[C@@H](CC(N)=O)C(=O)N[C@H]2C(=O)N[C@H]3C(=O)N[C@H](C(=O)N[C@H](C(=O)O)c4cc(O)cc(O)c4-c4cc3ccc4O)[C@H](O)c3ccc(c(Cl)c3)Oc3cc2cc(c3O[C@@H]2O[C@H](CO)[C@@H](O)[C@H](O)[C@H]2O[C@H]2C[C@](C)(NCc3ccc(N=C(N)NC/C=C(\C)CC/C=C(\C)CCC=C(C)C)cc3)[C@H](O)[C@H](C)O2)Oc2ccc(cc2Cl)[C@H]1O [Compound 15]	1 µg/mL	0.125 µg/mL (≈ 0.0694 µM)	0.125 µg/mL (≈ 0.0694 µM)	0.125 µg/mL (≈ 0.0694 µM)	0.03125 µg/mL (≈ 0.0174 µM)	0.5 µg/mL (≈ 0.278 µM)	≤0.008 µg/mL	0.03125 µg/mL (≈ 0.0174 µM)	0.031 µg/mL (≈ 0.0172 µM)	0.125 µg/mL (≈ 0.0694 µM)	0.01562 µg/mL (≈ 0.00867 µM)	0.125 µg/mL (≈ 0.0694 µM)	0.063 µg/mL	0.0625 µg/mL (≈ 0.0347 µM)	0.03125 µg/mL (≈ 0.0174 µM)	1 µg/mL (≈ 0.555 µM)	1 µg/mL (≈ 0.555 µM)
